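Test compounds were applied to cells in 96-well plates for 48 hours at 5 doses. The concentration for 50% growth inhibition is given as GI50.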 Calls of active or inactive are those of the source. No stated cut-off is given here; in the data, active = GI50 up to about 1.1 µM and inactive = higher.

The record followed here is ChEMBL document CHEMBL1201862, “PubChem BioAssay data set” (2004).

What all share (test): inhibition of tumour cell growth, NCI panel, 48 h
Assay [1] has as its system SF-268.
In assay [2] the test system is M14.
In assay [3] the test system is LOX IMVI.
The test system of assay [4] is HCT-15.
Assay [5] has as its system SK-MEL-28.
The subject of assay [6] is UACC-257.
Assay [7] relates to NCI/ADR-RES.
The test system of assay [8] is BT-549.
Assay [9] deals with NCI-H23.
The subject of assay [10] is CAKI-1.
Assay [11] concerns MCF7.
Assay [12] deals with HCC 2998.
Assay [13] concerns K562.
The subject of assay [14] is EKVX.
The subject of assay [15] is SR.
Assay [16] concerns HT-29.
The subject of assay [17] is MOLT-4.
Assay [18] relates to MDA-N.
Assay [19] has as its system UO-31.
In assay [20] the test system is IGROV-1.

As for `CC[C@H](C)[C@H]1NC(=O)[C@@H](NC(=O)[C@@H](CC(C)C)N(C)CC2CCCN2C(=O)C(C)=O)[C@@H](C)OC(=O)[C@H](Cc2ccc(OC)cc2)N(C)C(=O)C2CCCN2C(=O)[C@H](CC(C)C)NC(=O)[C@@H](C)C(=O)[C@H](C(C)C)OC(=O)C[C@@H]1O` (some centres not stated), the GI50 is 0.00488 µM (active) in assay [1]; 0.00374 µM (active) in assay [2]; 0.00291 µM (active) in assay [3]; 0.0769 µM in assay [4]; 0.0049 µM (active) in [5]; 0.00443 µM (active) in assay [6]. The GI50 is 0.0179 µM (active) in assay [7]; 0.0047 µM (active) in assay [8]; 0.00719 µM (active) in [9]; 0.0221 µM (active) in assay [10]; < 0.0025 µM (active) in assay [11]; 0.00448 µM (active) in assay [12]. Moreover, the GI50 in assay [13] was 0.00531 µM (active); in assay [14], 0.00379 µM (active); in [15], 0.00251 µM (active); in assay [16], 0.00255 µM (active); in assay [17], < 0.0025 µM (active); in [18], 0.00508 µM (active). The figures for the GI50 in assay [19] and in [20] were 0.00893 µM (active) and < 0.0025 µM (active), respectively.
On to `O=C(/C=C1\C[C@H]2C=Nc3ccccc3C(=O)N2C1)NCCCNC(=O)/C=C1\C[C@H]2C=Nc3ccccc3C(=O)N2C1`, for which the GI50 is 16.7 µM (inactive) in assay [1]; 14.4 µM (inactive) in [2]; 6.25 µM (inactive) in [3]; 18.1 µM in assay [4]; 18.9 µM (inactive) in assay [5]; 16.5 µM (inactive) in assay [6]. For the same compound, the GI50 in [7] is 23.3 µM (inactive); in assay [8], 16.4 µM (inactive); in assay [9], 15.5 µM (inactive); in [10], 13.3 µM (inactive); in assay [11] it was 16.7 µM (inactive); in assay [12], 20.2 µM (inactive). Further, the GI50 is 5.96 µM (inactive) in assay [13]; 19.8 µM (inactive) in assay [14]; 2.11 µM (inactive) in assay [15]; 16.4 µM (inactive) in assay [16]; 2.62 µM (inactive) in assay [17]; 17.1 µM (inactive) in assay [18]. Also, the values for the GI50 in assay [19] and in [20] were 14.7 µM (inactive) and 17.3 µM (inactive), respectively.
For the compound `Nc1cc2nc(O)c(O)nc2cc1N`, the GI50 was > 100 µM (inactive) in [1]; > 100 µM (inactive) in assay [3]; above 100 µM in assay [4]; > 100 µM (inactive) in assay [5]; > 100 µM (inactive) in assay [6]; > 100 µM (inactive) in assay [7]. Besides, the GI50 in [8], in [9], in [10], in assay [11], in [12] and in assay [13] was > 100 µM (inactive) each time. In addition, the GI50 in assay [14], in [15], in assay [16], in assay [17], in assay [18] and in [19] was > 100 µM (inactive) in each case. Also, in [20], the GI50 was > 100 µM (inactive).
For `CC(C)C1CC(CO)(CNc2nc(N)nc(Cl)c2/C=N\O)C1` (configuration not stated), the GI50 is 22.4 µM (inactive) in assay [1]; 13.1 µM (inactive) in [2]; 0.339 µM (active) in [3]; 15.7 µM in assay [4]; 12.8 µM (inactive) in [5]; 0.656 µM (active) in assay [6]. In addition, the GI50 is 3.42 µM (inactive) in assay [7]; 11.7 µM (inactive) in assay [8]; 0.519 µM (active) in [9]; 11.9 µM (inactive) in assay [10]; 0.687 µM (active) in [11]; 3.94 µM (inactive) in [12]. Besides, the GI50 was 0.0843 µM (active) in [13]; 0.264 µM (active) in assay [14]; 0.507 µM (active) in assay [15]; 4.34 µM (inactive) in assay [16]; 10.3 µM (inactive) in assay [17]; 11.3 µM (inactive) in [18]. Further, the GI50 in assay [19] was 9.27 µM (inactive); in assay [20], 15.7 µM (inactive).
On to `N#CC(C#N)=CNC(N)=S`, for which the GI50 in assay [1] is > 100 µM (inactive); in assay [2] it was > 100 µM (inactive); in assay [3] it was > 100 µM (inactive); in [4], above 100 µM; in [5], > 100 µM (inactive); in assay [6], > 100 µM (inactive). Moreover, the GI50 in [7], in assay [8], in assay [9], in [10], in [11] and in assay [12] was > 100 µM (inactive) in each case. Moreover, the GI50 in assay [13], in assay [14], in [15], in assay [16], in [17] and in assay [18] was > 100 µM (inactive) in each case. In assay [20], the GI50 was > 100 µM (inactive).
Turning to `O=c1c2c(-c3ccccc3)onc2n(-c2ccccc2)c(=O)n1-c1ccccc1`, the GI50 is 30.1 µM (inactive) in [1]; 17.1 µM (inactive) in [2]; > 100 µM (inactive) in assay [3]; 15.8 µM in assay [4]; 19.7 µM (inactive) in assay [6]; 16.9 µM (inactive) in assay [7]. The GI50 in [8] was 19.2 µM (inactive); in assay [9], 19 µM (inactive); in assay [10] it was > 100 µM (inactive); in [11], > 100 µM (inactive); in [12], 18.2 µM (inactive); in assay [13], > 100 µM (inactive). Moreover, the GI50 in assay [14] is 20.3 µM (inactive); in assay [15], > 100 µM (inactive); in assay [16] it was 21 µM (inactive); in assay [17], > 100 µM (inactive); in [18], > 100 µM (inactive); in [19], 14.9 µM (inactive). Besides, in [20], the GI50 is 22.5 µM (inactive).
With `CN1C(=O)C2CCC(=O)N2c2cccnc21` (configuration not stated), the GI50 in assay [1] was > 100 µM (inactive); in [3] it was > 100 µM (inactive); in assay [4], above 100 µM; in assay [5], > 100 µM (inactive); in assay [6], > 100 µM (inactive); in assay [7], > 100 µM (inactive). The GI50 in [8], in assay [9], in assay [10], in [11], in assay [12] and in [13] was > 100 µM (inactive) throughout. For the same compound, the GI50 in assay [14], in assay [15], in assay [16], in assay [17], in assay [18] and in assay [19] was > 100 µM (inactive) each time. Moreover, the GI50 in assay [20] is > 100 µM (inactive).
With `CCOC(=O)c1c(N2CCOCC2)[nH]c(=O)c(C(c2ccco2)c2c(O)c(C(=O)OCC)c(N3CCOCC3)[nH]c2=O)c1O`, the GI50 in [1] was > 100 µM (inactive); in assay [2], > 100 µM (inactive); in assay [3] it was > 100 µM (inactive); in [4] it was above 100 µM; in assay [5], > 100 µM (inactive); in assay [6] it was > 100 µM (inactive). For the same compound, the GI50 in assay [7], in [8], in assay [9], in [10], in assay [11] and in assay [12] was > 100 µM (inactive) in each case. The GI50 in assay [13], in assay [14], in assay [15], in assay [16], in assay [17] and in assay [18] was > 100 µM (inactive) throughout. In assay [19], the GI50 was > 100 µM (inactive).
For the compound `COC(=O)c1cc(-c2c[nH]cc2C(=O)OCc2ccccc2)cn1S(=O)(=O)c1ccc(C)cc1`, the GI50 is > 100 µM (inactive) in [1]; > 100 µM (inactive) in assay [2]; 22.4 µM (inactive) in assay [3]; above 100 µM in assay [4]; 7.93 µM (inactive) in assay [6]; 66.7 µM (inactive) in [7]. Also, the GI50 was 71.4 µM (inactive) in assay [8]; 6.61 µM (inactive) in assay [9]; > 100 µM (inactive) in assay [10]; 22.3 µM (inactive) in assay [11]; > 100 µM (inactive) in [12]; 7.5 µM (inactive) in [13]. In addition, the GI50 in [14] is 8.89 µM (inactive); in assay [15] it was > 100 µM (inactive); in assay [16] it was > 100 µM (inactive); in assay [17], > 100 µM (inactive); in [18], > 100 µM (inactive); in [19], > 100 µM (inactive). Further, the GI50 in assay [20] was > 100 µM (inactive).
As for `CO[C@@H]1O[C@H](C(=O)c2ccccc2)[C@H]2OC(C)(C)O[C@@H]12`, the GI50 in assay [1] is > 100 µM (inactive); in assay [2], > 100 µM (inactive); in [3], > 100 µM (inactive); in assay [4], 55.2 µM; in assay [6] it was > 100 µM (inactive); in [7], 74.1 µM (inactive). The GI50 in assay [8] was 68.9 µM (inactive); in assay [9], 94.8 µM (inactive); in [10], > 100 µM (inactive); in assay [11], > 100 µM (inactive); in assay [12], > 100 µM (inactive); in [13] it was > 100 µM (inactive). Besides, the GI50 in [14] is 86.5 µM (inactive); in assay [15] it was 57.8 µM (inactive); in assay [17], > 100 µM (inactive); in assay [18], > 100 µM (inactive); in [19] it was > 100 µM (inactive); in assay [20] it was > 100 µM (inactive).
